Data from PubChem BioAssay AID1918991 (Molecular Pharmacology Branch, DTP, NCI, 2023).
pIC50: −log10 of the molar value. Several values for one entry are separate records, joined by “and”; a condition that tells them apart may be missing. Equal entries are not always repeated.

Tested on: 186277-243-T-J2-PDC complex spheroid growth
Assay: Anticancer human tumor 186277-243-T-J2-PDC patient-derived colon adenocarcinoma cell line growth inhibition [AhR]
Conditions: for viability, T/C: stronger effect = lower value
Source text: Multicellular complex tumor spheroid response to aryl hydrocarbon receptor antagonists in combination with a variety of drugs and investigational agents in selected tumor cell lines
The current study was undertaken to assess response to aryl hydrocarbon receptor antagonists in combination with standard-of-care drugs and investigational agents in solid tumor complex spheroid models. Complex spheroids include a stromal component modeled by human endothelial cells (HUVEC) and fibroblasts modeled by human mesenchymal stem cells (MSCs). The concentration ranges selected for each drug and investigational agent were based upon clinically achievable concentrations if the clinical Cmax of the agent was known.
Compounds. The drugs and investigational agents: BAY 2416964 (NSC825713), GNF351 (NSC835774), CH-223191 (NSC835775), CPI-455 (NSC825282), aza-TdCyd (NSC777586), decitabine (NSC127716), belinostat (NSC758774), entinostat (NSC756642), pevonedistat (NSC761192), tazemetostat (NSC777109), talazoparib (NSC765396), olaparib (NSC753686), selinexor (NSC780203), nedisertib (M3814, NSC802822), bortezomib (NSC756655), venetoclax (NSC766270), doxorubicin (NSC123127), elimusertib (BAY189344, NSC800525), ceralasertib (AZD6738, NSC777638), TAK-243 (NSC785004), alisertib (NSC759677), etoposide (NSC141540), topotecan (NSC609699), eribulin (NSC707389), gemcitabine (NSC613327), carboplatin (NSC241240), cisplatin (NSC119875), and SN-38 (NSC673596) were obtained from the National Cancer Institute (NCI) Developmental Therapeutics Program Chemical Repository (32). The FDA-approved anticancer drug set is available from the Developmental Therapeutics Program at https://dtp.cancer.gov/organization/dscb/obtaining/available plates.htm. […] The stock solutions were prepared in dimethyl sulfoxide (DMSO, Sigma-Aldrich, St. Louis, MO, cat. D2650), except for the platinum compounds which were prepared in saline (Quality Biological, Gaithersburg, MD, cat. 114-055-101), at 800-fold the tested concentration and stored at -70 degrees C prior to their use. All drugs and investigational agents were tested over a range starting from a high concentration at or near the clinical Cmax and decreasing in half-log increments. If the clinical Cmax for an agent had not been determined, the highest concentration tested was 10 microM (Table 1).
Cell Culture. All cells were maintained in an incubator at 37 degrees C and 5% CO2 with 95% humidity. The PDC lines were cultured according to standard operating procedures established by the NCI PDMR (https://pdmr.cancer.gov). Briefly, all PDCs were thawed and cultured in Matrigel-coated flasks prepared with a working solution of 1X Ham's F-12 nutrient mix, without supplementation (Invitrogen, Waltham, MA, cat. 11765054), 100 U/mL penicillin-streptomycin (Invitrogen, cat. 15140122), and 2.5% Matrigel (Corning Inc., Corning, NY, cat. 354248) for the first three passages. All PDCs were cultured in complete DMEM/F-12 media containing advanced DMEM/F-12 (Invitrogen, cat. 12634028), 4.9% defined fetal bovine serum, heat inactivated (HyClone Laboratories Inc., Logan, UT, cat. SH30070.03HI), 389 ng/mL hydrocortisone (Sigma-Aldrich, cat. H4001), 9.7 ng/mL human EGF recombinant protein (Invitrogen, cat. PHG0313), 23.4 microg/mL adenine (Sigma-Aldrich, cat. A2786), 97.3 U/mL penicillin-streptomycin (Invitrogen, cat. 15140122), 1.9 mM L-glutamine (Invitrogen, cat. 25030081), and 9.7 microM Y-27632 dihydrochloride (Tocris Bioscience, Bristol, United Kingdom, cat. 1254). The PDCs were cultured in complete DMEM/F12 media without 10 microM Y-27632 dihydrochloride for at least two passages prior to the screen. The established cell lines NCI-H1341 and […] were cultured in DMEM/F-12, HEPES (Invitrogen, cat. 11330032), 5% defined fetal bovine serum (HyClone Laboratories Inc., cat. SH30070.03), ITS premix universal culture supplement [insulin (5 microg/mL), transferrin (5 microg/mL), and selenious acid (5 ng/mL)] […]

[1] = curve of first compound, second compound 0.1 µM
[2] = curve of first compound, second compound 0.316 µM
[3] = curve of first compound, second compound 1 µM
[4] = curve of first compound, second compound 3.16 µM
[5] = curve of first compound, second compound 10 µM
[6] = second compound 0.1 µM, first compound 0.0316 µM
[7] = second compound 0.1 µM, first compound 0.1 µM
[8] = second compound 0.316 µM, first compound 0.0316 µM
[9] = second compound 0.316 µM, first compound 0.1 µM
[10] = second compound 1 µM, first compound 0.0316 µM
[11] = second compound 1 µM, first compound 0.1 µM
[12] = second compound 3.16 µM, first compound 0.0316 µM
[13] = second compound 3.16 µM, first compound 0.1 µM
[14] = second compound 10 µM, first compound 0.0316 µM
[15] = second compound 10 µM, first compound 0.1 µM
[16] = second compound 0.1 µM, first compound 0.316 µM
[17] = second compound 0.1 µM, first compound 1 µM
[18] = second compound 0.1 µM, first compound 3.16 µM
[19] = second compound 0.1 µM, first compound 10 µM
[20] = second compound 0.316 µM, first compound 0.316 µM
[21] = second compound 0.316 µM, first compound 1 µM
[22] = second compound 0.316 µM, first compound 3.16 µM
[23] = second compound 0.316 µM, first compound 10 µM
[24] = second compound 1 µM, first compound 0.316 µM
[25] = second compound 1 µM, first compound 1 µM
[26] = second compound 1 µM, first compound 3.16 µM
[27] = second compound 1 µM, first compound 10 µM
[28] = second compound 3.16 µM, first compound 0.316 µM
[29] = second compound 3.16 µM, first compound 1 µM
[30] = second compound 3.16 µM, first compound 3.16 µM
[31] = second compound 3.16 µM, first compound 10 µM
[32] = second compound 10 µM, first compound 0.316 µM
[33] = second compound 10 µM, first compound 1 µM
[34] = second compound 10 µM, first compound 3.16 µM
[35] = second compound 10 µM, first compound 10 µM
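Further: spheroids exposed to compounds for seven days before the viability read.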
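Wherever viability, T/C is given: luminescent signal used as a stand-in for viable cell amount; 100% = DMSO vehicle control wells.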

## Cn1ncnc1C1c2n[nH]c(=O)c3cc(F)cc(c23)NC1c1ccc(F)cc1 (centres undefined) + Cc1cncc(-c2nc(NCCc3c[nH]c4ccccc34)c3ncn(C(C)C)c3n2)c1
[1]
  pIC50: < 7.00
[2]
  pIC50: < 7.00
[3]
  pIC50: < 7.00
[4]
  pIC50: < 7.00
[5]
  pIC50: < 7.00
Second compound 0.1 µM, first compound 0.000316 µM
  viability, T/C: 89%
Second compound 0.1 µM, first compound 0.001 µM
  viability, T/C: 83.9%
Second compound 0.1 µM, first compound 0.00316 µM
  viability, T/C: 100%
Second compound 0.1 µM, first compound 0.01 µM
  viability, T/C: 107%
[6]
  viability, T/C: 115%
[7]
  viability, T/C: 123%
Second compound 0.316 µM, first compound 0.000316 µM
  viability, T/C: 109%
Second compound 0.316 µM, first compound 0.001 µM
  viability, T/C: 103%
Second compound 0.316 µM, first compound 0.00316 µM
  viability, T/C: 95%
Second compound 0.316 µM, first compound 0.01 µM
  viability, T/C: 110%
[8]
  viability, T/C: 121%
[9]
  viability, T/C: 135%
Second compound 1 µM, first compound 0.000316 µM
  viability, T/C: 92.5%
Second compound 1 µM, first compound 0.001 µM
  viability, T/C: 97.1%
Second compound 1 µM, first compound 0.00316 µM
  viability, T/C: 102%
Second compound 1 µM, first compound 0.01 µM
  viability, T/C: 107%
[10]
  viability, T/C: 130%
[11]
  viability, T/C: 139%
Second compound 3.16 µM, first compound 0.000316 µM
  viability, T/C: 102%
Second compound 3.16 µM, first compound 0.001 µM
  viability, T/C: 95.3%
Second compound 3.16 µM, first compound 0.00316 µM
  viability, T/C: 99.3%
Second compound 3.16 µM, first compound 0.01 µM
  viability, T/C: 112%
[12]
  viability, T/C: 127%
[13]
  viability, T/C: 128%
Second compound 10 µM, first compound 0.000316 µM
  viability, T/C: 77.4%
Second compound 10 µM, first compound 0.001 µM
  viability, T/C: 90.7%
Second compound 10 µM, first compound 0.00316 µM
  viability, T/C: 83.7%
Second compound 10 µM, first compound 0.01 µM
  viability, T/C: 66.9%
[14]
  viability, T/C: 69.6%
[15]
  viability, T/C: 68%

## NS(=O)(=O)OCC1CC(n2ccc3c(NC4CCc5ccccc54)ncnc32)CC1O (centres undefined) + CC(CO)NC(=O)c1cc(-c2ccc(Cl)cc2)nn(-c2cnn(C)c2)c1=O
[1]
  pIC50: 6.69
[2]
  pIC50: 6.71
[3]
  pIC50: 6.82
[4]
  pIC50: 6.86
[5]
  pIC50: 6.96
[6]
  viability, T/C: 102%
[7]
  viability, T/C: 76.7%
[16]
  viability, T/C: 33.5%
[17]
  viability, T/C: 11%
[18]
  viability, T/C: 4.62%
[19]
  viability, T/C: 1.34%
[8]
  viability, T/C: 91.8%
[9]
  viability, T/C: 76.7%
[20]
  viability, T/C: 29.4%
[21]
  viability, T/C: 10.7%
[22]
  viability, T/C: 3.18%
[23]
  viability, T/C: 0.98%
[10]
  viability, T/C: 89.9%
[11]
  viability, T/C: 65.1%
[24]
  viability, T/C: 22.1%
[25]
  viability, T/C: 8.96%
[26]
  viability, T/C: 3.1%
[27]
  viability, T/C: 1.27%
[12]
  viability, T/C: 78.3%
[13]
  viability, T/C: 61.1%
[28]
  viability, T/C: 22.9%
[29]
  viability, T/C: 7.89%
[30]
  viability, T/C: 2.24%
[31]
  viability, T/C: 1.06%
[14]
  viability, T/C: 63.5%
[15]
  viability, T/C: 53.2%
[32]
  viability, T/C: 22%
[33]
  viability, T/C: 8.3%
[34]
  viability, T/C: 2.58%
[35]
  viability, T/C: 1.14%

## CC(CO)NC(=O)c1cc(-c2ccc(Cl)cc2)nn(-c2cnn(C)c2)c1=O (centres undefined)
Compound 1 µM
  viability, T/C: 98.3% [middle of 21 runs]
Compound 10 µM
  viability, T/C: 85.9% [middle of 19 runs]
Compound alone, run of 07/12/2022
  pIC50: < 5.00

## CC1(C)CCC(CN2CCN(c3ccc(C(=O)NS(=O)(=O)c4ccc(NCC5CCOCC5)c([N+](=O)[O-])c4)c(Oc4cnc5[nH]ccc5c4)c3)CC2)=C(c2ccc(Cl)cc2)C1 + Cc1cncc(-c2nc(NCCc3c[nH]c4ccccc34)c3ncn(C(C)C)c3n2)c1
[1]
  pIC50: < 5.00
[2]
  pIC50: < 5.00
[3]
  pIC50: < 5.00
[4]
  pIC50: < 5.00
[5]
  pIC50: < 5.00
[6]
  viability, T/C: 88.2%
[7]
  viability, T/C: 97.7%
[16]
  viability, T/C: 99.4%
[17]
  viability, T/C: 91.4%
[18]
  viability, T/C: 94.3%
[19]
  viability, T/C: 94.8%
[8]
  viability, T/C: 109%
[9]
  viability, T/C: 87.4%
[20]
  viability, T/C: 102%
[21]
  viability, T/C: 83.5%
[22]
  viability, T/C: 100%
[23]
  viability, T/C: 106%
[10]
  viability, T/C: 102%
[11]
  viability, T/C: 85.5%
[24]
  viability, T/C: 97.4%
[25]
  viability, T/C: 97.9%
[26]
  viability, T/C: 103%
[27]
  viability, T/C: 103%
[12]
  viability, T/C: 110%
[13]
  viability, T/C: 108%
[28]
  viability, T/C: 105%
[29]
  viability, T/C: 103%
[30]
  viability, T/C: 109%
[31]
  viability, T/C: 105%
[14]
  viability, T/C: 77%
[15]
  viability, T/C: 81.6%
[32]
  viability, T/C: 82.8%
[33]
  viability, T/C: 95.5%
[34]
  viability, T/C: 88.4%
[35]
  viability, T/C: 88.5%

## O=C(C=Cc1cccc(S(=O)(=O)Nc2ccccc2)c1)NO
Compound 0.0316 µM
  viability, T/C: 96.8% and 107% and 99.7%
Compound 0.1 µM
  viability, T/C: 93.5% and 112% and 84.1%
Compound 0.316 µM
  viability, T/C: 99.1% and 95.8% and 46.9%
Compound 1 µM
  viability, T/C: 55.2% and 91.8% and 13.2%
Compound 10 µM
  viability, T/C: 5.03% and 5.28% and 0.5%
Curve of compound
  pIC50: 5.94 and 5.67 and 6.55
